According to patent publication US4826819A, “Piperidine analgesics” (priority 1986, dated 1989):
Counter-ions that a name gives are not always drawn. Like-named read-outs stand apart in the source and are kept apart here.

Assays:
[1] = Mouse Tail-flick test (analgesic activity); assay type: in vivo, mouse (male Charles River mice); conditions: for % Protection (percent number of mice doubling the initial reaction time): 1 mg Kg^-1, 30 min after dosing
[2] = molecular target: T1, μ opioid receptor (μ sites) (Cavia porcellus, UniProt A0ACM8Q262); experiment: Opiate receptor binding to μ sites (3H-DAGO)
T1 construct: 3H-DAGO displacement
T1 sequence (A0ACM8Q262 1-400): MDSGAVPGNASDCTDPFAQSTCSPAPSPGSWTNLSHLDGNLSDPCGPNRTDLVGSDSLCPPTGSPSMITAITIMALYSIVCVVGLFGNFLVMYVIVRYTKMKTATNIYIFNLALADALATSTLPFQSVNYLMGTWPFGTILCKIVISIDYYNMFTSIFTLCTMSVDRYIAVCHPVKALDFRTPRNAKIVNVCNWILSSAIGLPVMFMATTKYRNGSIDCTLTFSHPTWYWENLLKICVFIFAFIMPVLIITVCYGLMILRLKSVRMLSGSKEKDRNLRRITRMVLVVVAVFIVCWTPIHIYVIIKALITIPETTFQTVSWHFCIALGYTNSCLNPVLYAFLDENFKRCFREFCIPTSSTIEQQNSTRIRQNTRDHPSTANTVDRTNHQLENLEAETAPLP
Procedure: (§1) Radio receptor binding to μ and k sites is performed on fresh guinea pig brain homogenate prepared according to Kosterlitz. (1981).
(§2) Whole brain without cerebellum is homogenized in 50 mM, Tris-buffer (pH 7.4 at 0° C.) and centrifuged at 49,000×g×10 min. The pellet is then resuspended in the same buffer, incubated at 37° C. for 45 min. and centrifuged again.
(§3) 1.9 ml of the final homogenate (1:100 in Tris-pH 7.4, 0° C.) is used for the binding assay.
Binding to μ sites (Magnan J., 1982)
^3 H [D-Ala^2, MePhe^4, Gly-ol^5 ] Enkephalin (^3 H-DAGO), an enkephalin analogue that binds selectively to μ-receptors, is added to the biological substrate and incubated at 25° C. for 40 min., filtered through Whatman GF-C and washed with ice-cold Tris-buffer.
The filters are then dried, solubilized in Filtercount and the radioactivity monitored. Non specific binding is determined in the presence of 10^-6 M Naloxone.
(§4) For the calculation of the kinetic parameters of the binding of labelled and unlabelled ligands, the equilibrium dissociation constant (KD), and the inhibition constant (Ki) and the maximum number of binding sites (B max) are determined from saturation curves and competition experiments (Hill 1910; Scatchard 1949; Cheng and Prusoff 1973; Gillan et al. 1980).
(§5) A concentration of radioligand near KD is used in the binding assays evaluating our compounds.

[3] = molecular target: T2, K (Kappa) opioid receptor (K sites) (Cavia porcellus, UniProt P41144); experiment: Opiate receptor binding to K sites (tritiated Ethylketocyclazocine); parameters: species or system guinea pig
T2 construct: performed on fresh guinea pig brain homogenate; from tissue; host or cells: guinea pig whole brain without cerebellum, homogenate
T2 sequence (P41144 whole entry): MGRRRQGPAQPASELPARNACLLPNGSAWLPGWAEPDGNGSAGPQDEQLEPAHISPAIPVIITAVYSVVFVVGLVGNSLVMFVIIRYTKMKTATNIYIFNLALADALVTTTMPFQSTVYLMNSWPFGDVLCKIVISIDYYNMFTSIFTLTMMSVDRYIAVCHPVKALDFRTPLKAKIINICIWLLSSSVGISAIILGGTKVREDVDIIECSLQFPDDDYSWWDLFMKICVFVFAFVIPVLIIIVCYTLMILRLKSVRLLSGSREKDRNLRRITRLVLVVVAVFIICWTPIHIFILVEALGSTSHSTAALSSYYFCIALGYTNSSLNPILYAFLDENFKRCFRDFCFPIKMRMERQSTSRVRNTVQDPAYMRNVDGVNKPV
Procedure: as §1, §2, §3
Binding to K sites (Magnan J., 1982)
The binding of tritiated Ethylketocyclazocine to brain homogenate is measured in the presence of 100 nanomolar D-Ala-D-LeuEnkephalin (DADLE) and 100 nanomolar DAGO, added to saturate the δ and μ opioid receptors respectively.
Final homogenate with solutions of the cold ligand and of the labelled ligand is incubated for 40 min at 25° C., filtered through Whatman GF/C glass filter discs and washed.
The radioactivity bound to the filters is counted by liquid scintillation spectrophotometry.
MR 2266,500 nM is utilized to determine the saturable binding.
as §4, §5

[4] = sc, 0.5 h, subcutaneous, read-out: ED50 subcutaneous
[5] = guinea pig brain homogenate, 25° C., 40 min, read-out: Ki, opiate receptor binding, μ
[6] = guinea pig brain homogenate, tritiated Ethylketocyclazocine with 100 nM DADLE and 100 nM DAGO, 25° C., 40 min, read-out: Ki, opiate receptor binding, K

O=C(Cc1cccc([N+](=O)[O-])c1)N1CCCCC1CN1CCCC1 (racemic) [Example 1, (2R,S)-1-(3-nitrophenylacetyl)-2-(1-Pyrrolidinylmethyl) piperidine hydrochloride]
ED50 [1, 4]: 0.97 mg/kg | Ki [2, 5]: > 10000 nM | Ki [3, 6]: 5.96 nM

O=C(Cc1cccc(C(F)(F)F)c1)N1CCCCC1CN1CCCC1 (racemic) [Example 2, (2R,S)-1-(3-trifluoromethylphenylacetyl)-2-(1-pyrrolidinylmethyl)piperidinehydrochloride hemihydrate]
ED50 ([1]; oral (os), read-out: ED50 oral): 4.61 mg/kg | ED50 [1, 4]: 0.43 mg/kg | Ki [2, 5]: > 10000 nM | Ki [3, 6]: 3.07 nM

O=C(Cc1ccc([N+](=O)[O-])cc1)N1CCCCC1CN1CCCC1 (racemic) [Example 4, (2R,S)-1-(4-nitrophenylacetyl)-2-(1-pyrrolidinylmethyl)piperidine hydrochloride]
ED50 ([1]; oral (os), read-out: ED50 oral): 5.45 mg/kg | ED50 [1, 4]: 0.55 mg/kg | % Protection (percent number of mice doubling the initial reaction time) ([1]; subcutaneous): 80% | Ki [2, 5]: 12800 nM | Ki [3, 6]: 37.9 nM

O=C(Cc1ccc(C(F)(F)F)cc1)N1CCCCC1CN1CCCC1 (racemic) [Example 5, (2R,S)-1-(4-trifluoronethylphenylacetyl)-2-(1pyrrolidinylmethyl)piperidine hydrochloride]
ED50 ([1]; oral (os), read-out: ED50 oral): 1.08 mg/kg | ED50 [1, 4]: 0.23 mg/kg | % Protection (percent number of mice doubling the initial reaction time) ([1]; subcutaneous): 100% | Ki [2, 5]: 3090 nM | Ki [3, 6]: 3.59 nM

O=C(Cc1ccc(Br)cc1)N1CCCCC1CN1CCCC1 (racemic) [Example 6, (2R,S)-1-(4-bromophenylacetyl)-2-(1-pyrrolidinylmethyl)piperidine hydrochloride]
ED50 ([1]; oral (os), read-out: ED50 oral): 4.12 mg/kg | ED50 [1, 4]: 0.52 mg/kg | % Protection (percent number of mice doubling the initial reaction time) ([1]; subcutaneous): 80% | Ki [2, 5]: 3130 nM | Ki [3, 6]: 6.61 nM

O=C(Cc1ccc(C(F)(F)F)cc1)N1CCCC[C@H]1CN1CCCC1 [Example 3, (2S)-1-(4-trifluoromethylphenylacetyl)-2-(1-pyrrolidinylmethyl) piperidine hydrochloride sesquihydrate]
ED50 ([1]; oral (os), read-out: ED50 oral): 0.67 mg/kg | ED50 [1, 4]: 0.14 mg/kg | Ki ([2]; read-out: Ki, opiate receptor binding, μ, guinea pig brain homogenate, 25° C., 40 min): 2540 nM | Ki [3]: 4.05 nM
